Test results from publication PMC11106165, “Repurposing the KCa3.1 Blocker Senicapoc for Ischemic Stroke” (Translational Stroke Research, 2023).

Assays:
[1] = tested on: male C57BL/6 J mice, tMCAO; experiment: tMCAO (60 min) in mice, infarct area by T2-weighted MRI; assay type: in vivo, mouse
Method: Reversible focal cerebral ischemia was induced by occlusion of the left middle cerebral artery (MCA) according to the classic filament method of Zea Longa as previously described for mice by our laboratory. All surgeries were performed in the MicroSurgery Core of the UC Davis School of Medicine by a microsurgeon with 20 years of surgical experience using a silicone rubber-coated nylon monofilament with a tip diameter of 0.21 ± 0.02 mm (No. 702112PK5Re, Doccol Corporation). Anesthesia was induced with 5% isoflurane and then maintained with 0.5 to 1.5% isoflurane in medical pure oxygen administered through a facemask. To assure consistent and continuous reduction of cerebral blood flow (CBF), a laser Doppler (Moor Instruments: MOORVMS-LDF) probe adapter was affixed to the surface of the skull over the brain area supplied by the MCA using dental cement. The probe remained in place throughout the MCAO surgery and CBF was measured continuously to confirm occlusion and later establishment of reperfusion. Animals were kept under anesthesia and body temperature was monitored throughout the whole procedure and maintained at > 36.5 °C using a feedback-controlled heating pad. Following 60 min of MCAO, the filament was withdrawn to allow reperfusion. Blood flow measurements were continued for another 15 min before removing the adapter and the laser Doppler probe. Animals received subcutaneous Buprenex at 0.02 mg/kg every 12 h to limit post-surgical pain for 24 h after surgery. The survival rate was 93%. […] In this study, out of the animals surviving to day 8 (45 out of 48), two animals were excluded because they lacked an obvious neurological deficit score at 12 h. Animals that met inclusion criteria were assigned to the 3 groups (low- and high-dose senicapoc or vehicle) based on a computer-generated randomization scheme. […]
Infarct volume was evaluated with T2-weighted MRI imaging in the Nuclear Magnetic Resonance Facility at UC Davis. […] The multi-slice multi-echo (sequence (TE:56 ms; TR: 1681.2 ms) was used to acquire images of 7 coronal sections with 1-mm thickness from the junction of olfactory bulb and cortex. The infarct area was analyzed with Adobe Photoshop Elements by an investigator blinded to the treatments. On day 3, infarct area was corrected for edema and calculated with the equation: (L − N)/L × 100%; L, left (contralateral) hemisphere area; N, non-infarcted tissue area in the ipsilateral hemisphere. By day 8 post tMCAO, there typically is either only minimal or no associated cerebral edema, so no correction for edema is required and the percentage of infarcted area was calculated with the equation: (Infarct Area/Ipsilateral Hemisphere Area) × 100%.

[2] = tested on: patients with sickle cell disease and healthy volunteers; details: cited from earlier work
[3] = tested on: MMC (mouse microglial cell line); experiment: RT-qPCR of inflammatory markers in LPS-stimulated MMC; assay type: cell-based; details: 24 h 100 ng/mL LPS
Method: An immortalized mouse microglial cell (MMC) line was kindly provided by Dr. D.T. Golenbock (University of Massachusetts Medical School, Worcester, MA) and previously used by our laboratory. Cells were cultured in Gibco’s Dulbecco’s modified Eagle’s Medium (DMEM, high glucose, L-glutamine, high pyruvate) with 5% CO2 at 37° with 1% penicillin/streptomycin and 10% fetal bovine serum. For the qPCR experiments, cells were seeded at 200,000 cells/mL; 24 h later, medium was changed to DMEM with 2% FBS and cells were stimulated with 100 ng/mL lipopolysaccharide (LPS), in the presence or absence of senicapoc, or a 0.2% DMSO control. Cells were pre-incubated with senicapoc for 1 h prior to stimulation and harvested 24 h after stimulation.
After MRIs were completed, mice were euthanized with an overdose of isoflurane, brains harvested, split into ipsilateral and contralateral hemispheres, and immediately frozen with liquid N2. Brain hemispheres were homogenized in mortar and pestles with liquid N2. RNA was extracted from brain homogenates (Fig. 7b) or MMC cell pellets (Fig. 2) with Trizol (ThermoFisher, Catalog # 15,596,026) according to the manufacturer’s protocol. RNA purity and concentration were assessed using a Nanodrop Spectrophotometer ND-1000 (Marshall Scientific). The 260 nm/280 nm absorption ratios for the samples ranged from 1.95 to 2.00. Subsequently, a cDNA library was made with a High-Capacity cDNA Reverse Transcription Kit (ThermoFisher Scientific, Catalog# 4,374,967), with 2 µg of total RNA per […]. Reactions were carried out in a PTC-200 Peltier Thermal Cycler; the conditions were as follows: 25 °C for 10 min, 37 °C for 120 min, 85 °C for 5 min, with final storage at 4 °C. RT-qPCR reactions were conducted in an Applied Biosystems Viia7 Real-Time PCR System using Maxima SYBR Green/ROX qPCR Master Mix (ThermoFisher Scientific, Catalog #K022) and with the recommended three-step cycling protocol. […] Fold change was calculated by the ∆∆Ct method. […]

SMILES: NC(=O)C(c1ccccc1)(c1ccc(F)cc1)c1ccc(F)cc1 [senicapoc]
- T2-weighted lesion area ([1]; 10 mg/kg IP twice daily started 12 h after reperfusion, day 8, n = 7, vehicle 20.5 ± 1.3%): 11.6 ± 1.1%
- T2-weighted lesion area ([1]; 40 mg/kg IP twice daily started 12 h after reperfusion, day 8, n = 7, vehicle 20.5 ± 1.3%): 9.3 ± 1.3%
- T2-weighted lesion area ([1]; 40 mg/kg started 3 h after tMCAO, day 3, n = 8, P = 0.199, vehicle 21.4 ± 2.3%): 16.1 ± 3.1%
- T2-weighted lesion area ([1]; 40 mg/kg started 3 h after tMCAO, day 8, n = 8, P = 0.0318, vehicle 16.6 ± 1.0%): 11.7 ± 1.8%
- hemolysis, hematocrit and hemoglobin levels in phase II study ([2]; 10 mg/day, double-blind placebo-controlled): reduced hemolysis and significantly increased hematocrit and hemoglobin levels
- phase III endpoint: reduction in number of vaso-occlusive pain crises [2]: did not meet the set clinical endpoint
- tolerability in dose escalating phase I clinical trials ([2]; healthy volunteers and patients with sickle cell disease): well tolerated
- induction of inflammasome component NLRP3 [3]: prevented induction
- mRNA levels of iNOS and COX-2 [3]: significantly reduced
- mRNA expression of IL-1β, TNF-α, IL-6 and IL-10 ([3]; 1 h pre-incubation): concentration-dependently reduced
